A short description of series [1]: Antiproliferative activity against human HT-29 cells after 48 hrs by SRB assay. It counts as functional. As to conditions: HT-29, 48 h.
Series [2] can be described thus: Antiproliferative activity against human M21 cells after 48 hrs by SRB assay. It counts as functional. As to conditions: M21, 48 h. (In SRB staining, fixed cells bind dye roughly in proportion to their protein.)
A short description of series [3]: Antiproliferative activity against estrogen dependent human MCF7 cells after 48 hrs by SRB assay. It counts as functional. The settings on record: MCF7, 48 h.
Series [4] is described as follows: Antiproliferative activity against human MDA-MB-231 cells. It counts as functional.
The nature of series [5]: Antiproliferative activity against human MDA-MB-468 cells. It counts as functional.
Series [6] is described as follows: Antiproliferative activity against human SKBR3 cells. The class given is functional. As to conditions: SK-BR-3.
Series [7] can be described thus: Antiproliferative activity against human T47D cells. It counts as functional.
Series [8] in a line: Antiproliferative activity against human HaCaT cells. The class given is cell-based.
Series [9] is described as follows: Antiproliferative activity against neonatal-NHDF cells. As to conditions: human. The class given is cell-based.

A value given as a limit tells only on which side of the number the result lay.

For orientation: GI50 means the concentration at which growth is held to half of that of the control. Read a low GI50 as greater sensitivity of the cells. Consider `NS(=O)(=O)NCC1CCN(c2cc(-c3ccccc3F)ncn2)CC1`, for which the results for the GI50 in series [1], in series [2] and in series [3] were 80.4 µM, more than 100 µM and 48.5 µM, respectively.

For the molecule `COc1ccc(-c2cc(N3CCC(CNS(N)(=O)=O)CC3)ncn2)cc1`, the GI50 in series [1] is more than 100 µM; in series [2], more than 100 µM; in series [3], 35.3 µM; in [4] it was more than 100 µM; in series [5] it was more than 100 µM; in series [6], more than 100 µM. Also, the GI50 is 24.5 µM in series [7], more than 100 µM in series [8] and 77 µM in series [9].

Turning to `NS(=O)(=O)NCC1CCN(c2cc(-c3ccc(Cl)cc3)ncn2)CC1`, the GI50 in series [1] came out at 37.7 µM; in [2], 50.3 µM; in series [3], 25.5 µM.

For `NS(=O)(=O)NCCC1CCN(c2cc(-c3ccccc3)ncn2)CC1`, the GI50 in series [1] was 66.5 µM; in series [2], more than 100 µM; in series [3], 53.2 µM.

With `CCCCc1ccc(-c2cc(N3CCC(CNS(N)(=O)=O)CC3)ncn2)cc1`, the GI50 in series [1] amounted to 15.2 µM; in [2] it was 47.2 µM; in [3] it was 21.8 µM.

Take `NS(=O)(=O)NCCC1CCN(c2cc(-c3cccc(Cl)c3)ncn2)CC1`: the GI50 stood at 31.6 µM in [1], 50.7 µM in [2] and 31.2 µM in series [3].

`COC(=O)c1ccc(-c2cc(N3CCC(CNS(N)(=O)=O)CC3)ncn2)cc1`: the values for the GI50 in series [1], in series [2] and in [3] were 22.9 µM, 14.1 µM and 17.7 µM, respectively.

As for `NS(=O)(=O)NCCC1CCN(c2cc(-c3ccc(C(F)(F)F)cc3)ncn2)CC1`, the GI50 in series [1] was found to be 22.6 µM; in [2], 34.8 µM; in series [3] it was 15.2 µM.

Turning to `NS(=O)(=O)NCC1CCN(c2cc(-c3ccccc3Cl)ncn2)CC1`, the GI50 in series [1] is more than 100 µM; in series [2] it was more than 100 µM; in series [3], 62.4 µM; in series [4] it was more than 100 µM; in series [5], more than 100 µM; in series [6], more than 100 µM. In addition, the GI50 in series [7] is 65.5 µM; in series [8], more than 100 µM; in [9], 93 µM.

As for `Cc1ccc(-c2cc(N3CCC(CCNS(N)(=O)=O)CC3)ncn2)cc1`, the GI50 in series [1] came out at 52.3 µM; in [2], 57.6 µM; in [3] it was 47.5 µM.

As for `CCOC(=O)c1ccc(-c2cc(N3CCC(CNS(N)(=O)=O)CC3)ncn2)cc1`, the GI50 in [1] came out at 5.7 µM; in series [2], 5 µM; in [3] it was 4.1 µM.

In the case of `Cc1ccc(-c2cc(N3CCC(CNS(N)(=O)=O)CC3)ncn2)cc1`, the values for the GI50 in series [1], in series [2] and in series [3] were 33.9 µM, 71 µM and 30.6 µM, respectively.

For the molecule `NS(=O)(=O)NCCC1CCN(c2cc(-c3ccccc3F)ncn2)CC1`, the GI50 in series [1] was 51.8 µM; in series [2], 81.8 µM; in series [3] it was more than 100 µM.

Take `NS(=O)(=O)NCC1CCN(c2cc(-c3ccc(C(F)(F)F)cc3)ncn2)CC1`: the figures for the GI50 in series [1], in [2] and in [3] were 29.1 µM, 43.1 µM and 22.5 µM, respectively.

On to `CC(C)(C)c1ccc(-c2cc(N3CCC(CNS(N)(=O)=O)CC3)ncn2)cc1`, for which the GI50 in series [1] came to 8.9 µM; in series [2], 19.3 µM; in [3] it was 19.7 µM.

Consider `COc1ccc(-c2cc(N3CCC(CCNS(N)(=O)=O)CC3)ncn2)cc1`, for which the GI50 in series [1] is 72.3 µM; in series [2] it was 69.8 µM; in series [3] it was 56.6 µM.

Take `NS(=O)(=O)NCC1CCN(c2cc(-c3cccc4ccccc34)ncn2)CC1`: the GI50 in series [1] worked out at 6.8 µM; in series [2], 6.6 µM; in series [3] it was 12.1 µM.

With `CC(C)(C)c1ccc(-c2cc(N3CCC(CCNS(N)(=O)=O)CC3)ncn2)cc1`, the values for the GI50 in [1], in series [2] and in series [3] were 10.3 µM, 18.4 µM and 13.1 µM, respectively.

In the case of `COC(=O)c1ccc(-c2cc(N3CCC(CCNS(N)(=O)=O)CC3)ncn2)cc1`, the GI50 in [1] was 19.6 µM; in [2], 19.6 µM; in [3], 17.6 µM.

Turning to `CCOC(=O)c1ccc(-c2cc(N3CCC(CCNS(N)(=O)=O)CC3)ncn2)cc1`, the GI50 came to 6.8 µM in series [1], 9 µM in [2] and 6.2 µM in series [3].

Consider `NS(=O)(=O)NCCC1CCN(c2cc(-c3ccc(Cl)cc3)ncn2)CC1`, for which the concentration for 50% growth inhibition (GI50) in series [1] was 30.5 µM; in [2], 45.2 µM; in series [3], 19.7 µM.

As to `COc1ccccc1-c1cc(N2CCC(CNS(N)(=O)=O)CC2)ncn1`, the GI50 in [1] was more than 100 µM; in series [2] it was more than 100 µM; in series [3], 10.1 µM; in series [4], more than 100 µM; in [5], more than 100 µM; in series [6] it was more than 100 µM. Also, the GI50 in series [7], in series [8] and in [9] was more than 100 µM throughout.

On to `CCCCc1ccc(-c2cc(N3CCC(CCNS(N)(=O)=O)CC3)ncn2)cc1`, for which the GI50 in series [1] was 13.3 µM; in series [2], 15.1 µM; in series [3], 11.3 µM.

`NS(=O)(=O)NCCC1CCN(c2cc(-c3cccc4ccccc34)ncn2)CC1`: the GI50 in series [1] was determined as 3.5 µM; in [2] it was 1.8 µM; in [3], 5.9 µM.

For the molecule `NS(=O)(=O)NCC1CCN(c2cc(-c3ccccc3)ncn2)CC1`, the GI50 in series [1] is more than 100 µM; in [2], more than 100 µM; in series [3], 34.3 µM; in series [4], more than 100 µM; in [5], more than 100 µM; in series [6], more than 100 µM. Further, the values for the GI50 in [7], in series [8] and in [9] were 24.1 µM, more than 100 µM and more than 100 µM, respectively.

Turning to `NS(=O)(=O)NCC1CCN(c2cc(-c3cccc(Cl)c3)ncn2)CC1`, the GI50 in series [1] came out at 47.5 µM; in [2], 62.5 µM; in [3], 47.1 µM.

As for `COc1ccccc1-c1cc(N2CCC(CCNS(N)(=O)=O)CC2)ncn1`, the GI50 came out at 74.3 µM in series [1], 96.9 µM in series [2] and 69.8 µM in series [3].

Take `NS(=O)(=O)NCCC1CCN(c2cc(-c3ccccc3Cl)ncn2)CC1`: the GI50 in [1] was 52.9 µM; in series [2] it was 93.9 µM; in [3], 44.8 µM.

Source of the values: ChEMBL document CHEMBL3871294, “Synthesis of novel substituted pyrimidine derivatives bearing a sulfamide group and their in vitro cancer growth inhibition activity” (Bioorg Med Chem Lett, 2017).
